This note sets out measurements from patent publication US6545152B1, “R-isomers of nonnucleoside inhibitors” (Parker Hughes Institute, priority 2000, dated 2003).

The test system of data set [1] is multidrug resistant HIV-1 strain RT-MDR (V106A, 74V, 41L, 215Y). The data set is described as follows: microbe, parasite or virus in culture. Format: cell-based.
The test system of a further data set is HIV-1 strain HTLVIIIB
The data set is described as follows: p24 antigen assay of HIV-1 replication in human PBMC. The settings on record: read-out: IC50 HTLVIIIB
The format is cell-based. The procedure:
The HIV-1 strain HTLVIIIB (kindly provided by Dr. Neal T. Wetherall, VIROMED Laboratories, Inc.), was propagated in CCRF-CEM cells, and used in in vitro assays of the anti-HIV-1 activity of the synthesized compounds of the invention. Cell-free supernatants of HTLVIIIB-infected CCRF-CEM cells were harvested, dispensed into 1 ml aliquots, and frozen at −70° C.
The incubated cells were then exposed to HIV-1 at a multiplicity of infection (MOI) of 0.1 during a one-hour adsorption period at 37° C. in a humidified 5% CO2 atmosphere. Subsequently, infected cells were cultured in 96-well microtiter plates (100 μl/well; 2×10^6 cells/ml) in the presence of test compounds, including appropriate controls. Aliquots of culture supernatants were removed from the wells on the seventh day after infection for p24 antigen assays. […] Ag.
(§1) The applied p24 enzyme immunoassay (EIA) was the unmodified kinetic assay commercially available from Coulter Corporation/Immunotech, Inc. (Westbrooke, Me.). In the assay, a murine monoclonal antibody against HIV core protein is coated onto microwell strips. Antigen (HIV core protein) present in the test culture supernatant samples binds the antibody and the bound antibody-antigen complex is quantitated. Percent viral inhibition was calculated by comparing the p24 values from the test substance-treated infected cells with p24 values from untreated infected cells (i.e., virus controls).

Data set [2] relates to HIV-1 strain A17 variant (Y181C plus K103N). As to the kind of experiment: microbe, parasite or virus in culture. The format is cell-based. The procedure:
(§2) Normal human peripheral blood mononuclear cells (PBMNC) from HIV-negative donors were cultured 72 hours in RPMI 1640 supplemented with 20%(v/v) heat-inactivated fetal bovine serum (FBS), 3% interleukin-2, 2 mM L-glutamine, 25 mM HEPES, 2 g/L NaHCO3, 50 μg/ml gentamicin, and 4 μg/ml phytohemagglutinin prior to exposure to HIV-1. The incubated cells were then exposed to HIV-1 at a multiplicity of infection (MOI) of 0.1 during a one-hour adsorption period at 37° C. in a humidified 5% CO2 atmosphere. Subsequently, infected cells were cultured in 96-well microtiter plates (100 μl/well; 2×10^6 cells/ml) in the presence of test compounds, including appropriate controls. Aliquots of culture supernatants were removed from the wells on the seventh day after infection for p24 antigen assays. The methods used in the P24 assay were as previously described in Uckun, et al., Antimicrobial Agents and Chemotherapy, 1998, 42, 383; Zarling, et al., Nature, 1990, 347, 92-95; Erice, et al., Antimicrob. Ag. Chemother., 1993, 37, 835.
as §1

Data set [3] concerns NNI-resistant HIV-1 strain A17 (Y181C). The data set is described as follows: microbe, parasite or virus in culture. The format is cell-based. The procedure: as §2, §1
The target in data set [4] is T1, recombinant HIV-1 reverse transcriptase (rRT) (Human immunodeficiency virus type 1 group M subtype B, UniProt P04585).
T1 construct: recombinant HIV-1 reverse transcriptase (rRT)
The data set is described as follows: Cell-free RT inhibition assay (Quan-T-RT, scintillation proximity). The format is biochemical. The procedure:
In addition, the activity of the test compounds to inhibit recombinant HIV-1 reverse transcriptase (rRT) activity was determined using the Quan-T-RT assay system (Amersham, Arlington Heights, Ill.), which utilizes the scintillation proximity assay principle. […] Data for both bioassays is reported as IC50 values.

Where [5] appears, read: Human immunodeficiency virus 1, H9, read-out: IC50 RT-MDR.
Setting [6] is: Human immunodeficiency virus 1, PBMC, human PBMC, p24.
[7] abbreviates: Human immunodeficiency virus 1, 168 h, read-out: IC50 A17 (second column; A17 variant).
Setting [8] is: Human immunodeficiency virus 1, read-out: IC50 A17 (second column; A17 variant).
Where [9] appears, read: Human immunodeficiency virus 1, read-out: IC50 A17.

Where “and” joins values, the source holds several entries; their conditions need not be identical. Identical values can stand only once. Like-named read-outs stand apart in the source and are kept apart here.

Turning to `CC(C)Nc1cccnc1N1CCN(C(=O)c2cc3cc(NS(C)(=O)=O)ccc3[nH]2)CC1` [Delavirdine, reference compound], the IC50 in data set [1] (setting [5]) is 0.4 µM; in the data set with HIV-1 strain HTLVIIIB (setting [6]), 0.009 µM; in data set [2] (setting [7]), more than 100 µM; in data set [2] (setting [8]), more than 100 µM; in data set [3] (setting [9]), 50 µM.

`C[C@@H](NC(=S)Nc1nccs1)C1CCCCC1` [PHI-513^R, N-[1-(1-(1R)-Cyclobexyl)ethyl]-N′-[2-(thiazolyl)]thiourea] had a melting point of 118 to 119 °C. Besides, in data set [1] (setting [5]), the IC50 stood at 5.6 µM. Also, the IC50 in the data set with HIV-1 strain HTLVIIIB (human PBMC, p24, listed as PHI-513^S) was more than 1 µM. The IC50 with HIV-1 strain HTLVIIIB (human PBMC, p24) amounted to 0.001 µM. Besides, the IC50 in data set [4] was 13 µM and > 100 µM. For the same compound, the IC50 in data set [2] (setting [8]) amounted to 5.8 µM. Besides, the IC50 in data set [3] (setting [9]) amounted to 0.9 µM.

In the case of `S=C(NCCc1ccccn1)Nc1ccc(Br)cn1` [Trovirdine, reference compound], the IC50 in data set [1] (setting [5]) was 0.02 µM; in the data set with HIV-1 strain HTLVIIIB (Human immunodeficiency virus 1, PBMC), 0.007 µM; in data set [2] (setting [7]), more than 100 µM; in data set [2] (setting [8]) it was more than 100 µM; in data set [3] (setting [9]) it was 0.5 µM.

Regarding `C[C@@H](NC(=S)Nc1ccc(Cl)cn1)c1ccccc1` [PHI-512^R], the melting point fell in the range of 185 to 187.5 °C. Further, the IC50 in data set [1] (setting [5]) is 0.01 µM. Also, the IC50 in the data set on HIV-1 strain HTLVIIIB (setting [6]) amounted to 0.01 µM. In addition, the IC50 in data set [2] (setting [8]) amounted to 10.2 µM. Besides, the IC50 in data set [3] (setting [9]) came to 0.2 µM.

For the compound `C[C@@H](NC(=S)Nc1ccc(Br)cn1)c1ccccc1` [PHI-511^R], the melting point lay in the range of 170 to 172 °C. Further, the IC50 in data set [1] (setting [5]) was determined as 0.005 µM. In addition, in data set [1] (RT-MDR), the “times more active than delavirdine” value is on record as 80 times, the “times more active than nevirapine” value is listed as 1,000 times and the “times more active than trovirdine” value was 4 times. For the same compound, the IC50 in the data set with HIV-1 strain HTLVIIIB (human PBMC, p24, listed as PHI-511^S) was more than 1 µM. The IC50 in the data set with HIV-1 strain HTLVIIIB (human PBMC, p24) worked out at 0.01 µM. Besides, the IC50 in data set [2] (setting [8]) was 2.7 µM. In addition, in data set [3] (A17), the “times more active than HI-240” value was found to be 20 times, the “times more active than delavirdine” value is given as 5,000 times, the “times more active than nevirapine” value was 10,000 times and the “times more active than trovirdine” value was 50 times. The IC50 in data set [3] (setting [9]) was 0.01 µM.

Turning to `C[C@@H](NC(=S)Nc1ccc(Br)cn1)C1CCCCC1` [PHI-509^R, N-[1-(1-(1R)-Cyclohexylethyl)]-N-[2-(5-bromopyridyl)] thiourea], the melting point lay in the range of 176 to 177 °C. The IC50 in data set [1] (setting [5]) came out at 0.2 µM. In addition, in the data set on HIV-1 strain HTLVIIIB (human PBMC, p24, listed as PHI-509^S), the IC50 is more than 1 µM. In addition, the IC50 with HIV-1 strain HTLVIIIB (human PBMC, p24) amounted to 0.001 µM. The IC50 in data set [2] (setting [7]) worked out at 10 µM. The IC50 in data set [3] (setting [9]) is 0.4 µM.

Turning to `CC(NC(=S)Nc1ccc(Cl)cn1)C1CCCCC1` (stereo not shown) [PHI-510^R], the IC50 in data set [1] (setting [5]) turned out to be 0.06 µM; in data set [2] (setting [8]), 8.2 µM; in data set [3] (setting [9]), 0.07 µM.

For the compound `C[C@@H](NC(=S)Nc1ccccn1)C1CCCCC1` [PHI-543], the melting point lay in the range of 125 to 127 °C. Besides, the IC50 with HIV-1 strain HTLVIIIB (setting [6]) is more than 1 µM. Besides, the IC50 in data set [4] was more than 100 µM.

With `C[C@H](NC(=S)Nc1ccccn1)C1CCCCC1` [PHI-542], the values for the IC50 (in the data set with HIV-1 strain HTLVIIIB (setting [6]); in data set [4]) were more than 1 µM and more than 100 µM, respectively.

Turning to `Cc1ccnc2c1NC(=O)c1cccnc1N2C1CC1` [Nevirapine, reference compound], the IC50 is 5 µM in data set [1] (setting [5]), 0.034 µM with HIV-1 strain HTLVIIIB (setting [6]), more than 100 µM in data set [2] (setting [8]) and more than 100 µM in data set [3] (setting [9]).

With `Fc1ccccc1CCNC(=S)Nc1ccc(Br)cn1` [HI-240, reference compound], the IC50 is 0.005 µM in data set [1] (H9 cells, read-out: IC50 RT-MDR); less than 0.001 µM in the data set with HIV-1 strain HTLVIIIB (human PBMC, p24); 0.6 µM in data set [4]; 41 µM in data set [2] (Y181C plus K103N mutations, read-out: IC50 A17 (second column; A17 variant)); 0.2 µM in data set [3] (Y181C mutation, read-out: IC50 A17).

One may read the IC50 as the concentration that inhibits the measured activity by half. Broadly, the melting point is the temperature, or range, at which the solid turns liquid.
